Our source for the GI50 and TGI values is PubChem BioAssay (NCI).

Among the test systems are EKVX NSCLC; RXF 393 renal; M14 melanoma; HCC-2998 colon; SK-MEL-2 melanoma; NCI-H23 lung; SK-MEL-5 melanoma; OVCAR-5 ovarian; SK-OV-3 ovarian; T-47D breast.
Common to all, as to test: inhibition of tumour cell growth, NCI panel, 48 h

Molecules are shown by their SMILES.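 Test compounds were applied to cells in 96-well plates for 48 hours at 5 doses. At the GI50, growth is halved. TGI is the concentration that stops growth completely.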 Some results are limits rather than exact numbers.

In the case of `c1cc[n+](Cc2c3ccccc3cc3c2ccc2ccccc23)cc1`, the GI50 with EKVX NSCLC was 19.5 µM; with RXF 393 renal it was 8.61 µM; with M14 melanoma it was 5.05 µM; in the test on HCC-2998 colon, 3.38 µM; in the test on SK-MEL-2 melanoma, 2.14 µM; with NCI-H23 lung, 1.71 µM. For the same compound, the GI50 was 1.77 µM with SK-MEL-5 melanoma, 11.1 µM in the test on OVCAR-5 ovarian, 13.6 µM in the test on SK-OV-3 ovarian and 2.34 µM in the test with T-47D breast. Also, the TGI in the test with EKVX NSCLC was > 100 µM; with RXF 393 renal, 47.5 µM; with M14 melanoma it was 19.7 µM; in the test with HCC-2998 colon it was 19.4 µM; in the test on SK-MEL-2 melanoma, 4.69 µM; in the test with NCI-H23 lung, 11.6 µM. Further, the TGI came to 3.89 µM in the test with SK-MEL-5 melanoma, 26.8 µM with OVCAR-5 ovarian, 59.1 µM in the test with SK-OV-3 ovarian and 7.92 µM with T-47D breast.

As to `Cn1c2c(c3ccccc31)CCN1C[C@@H]3CCCC[C@H]3C[C@@H]21`, the GI50 in the test with EKVX NSCLC was 5.57 µM; in the test on RXF 393 renal, 0.964 µM; in the test on M14 melanoma it was 2.95 µM; in the test with HCC-2998 colon, 2.1 µM; in the test with SK-MEL-2 melanoma it was 5.8 µM; in the test on NCI-H23 lung, 3.55 µM. For the same compound, the GI50 is 1.42 µM in the test on SK-MEL-5 melanoma, 3.82 µM in the test on OVCAR-5 ovarian, 2.82 µM in the test on SK-OV-3 ovarian and 14.1 µM with T-47D breast. The TGI in the test on EKVX NSCLC was > 100 µM; in the test on RXF 393 renal, 7.47 µM; in the test with M14 melanoma, 18.4 µM; with HCC-2998 colon it was 5.48 µM; in the test with SK-MEL-2 melanoma, > 26.7 µM; with NCI-H23 lung, > 100 µM. In addition, the TGI was 4.07 µM in the test on SK-MEL-5 melanoma, > 100 µM with OVCAR-5 ovarian, 25.6 µM with SK-OV-3 ovarian and > 100 µM with T-47D breast.

Take `CC(=O)OC1C(O)C(C)OC(OC2C(OC(=O)C3CCC4C(C3)OC3(CC(OC(=O)/C=C/c5ccccc5)C(C)CO3)C43CO3)OC(C)C(O)C2OC(C)=O)C1O` (stereo not given): the TGI in the test on EKVX NSCLC worked out at 0.074 µM; with RXF 393 renal it was 0.121 µM; in the test on M14 melanoma it was 0.0293 µM; in the test with HCC-2998 colon, 0.0148 µM; in the test with SK-MEL-2 melanoma, 0.0189 µM; in the test with NCI-H23 lung it was 0.0615 µM. Moreover, the TGI in the test with SK-MEL-5 melanoma came to 0.0155 µM; with OVCAR-5 ovarian, 0.144 µM; in the test on SK-OV-3 ovarian it was 0.0928 µM; in the test with T-47D breast, 0.0441 µM.

For `Cc1cc(O)ccc1C1(c2ccc(O)cc2C)OC(=O)c2ccccc21`, the GI50 in the test with EKVX NSCLC is 14.9 µM; with RXF 393 renal it was 18.5 µM; in the test on M14 melanoma, 18.3 µM; in the test on HCC-2998 colon, 18.5 µM; with SK-MEL-2 melanoma, 18.4 µM; with NCI-H23 lung, 16.6 µM. The GI50 in the test with SK-MEL-5 melanoma was 18 µM; in the test on OVCAR-5 ovarian, 16 µM; in the test with SK-OV-3 ovarian, 17.7 µM; in the test with T-47D breast, 20.2 µM. Moreover, the TGI in the test with EKVX NSCLC amounted to 31 µM; with RXF 393 renal, 33.9 µM; with M14 melanoma, 37.1 µM; in the test with HCC-2998 colon, 33.9 µM; in the test with SK-MEL-2 melanoma, 33.8 µM; with NCI-H23 lung, 33.4 µM. The TGI in the test on SK-MEL-5 melanoma stood at 32.1 µM; in the test on OVCAR-5 ovarian, 32.9 µM; with SK-OV-3 ovarian, 32.8 µM; in the test with T-47D breast, 41.3 µM.

`NS(=O)(=O)c1ccc(N=Nc2c(O)[nH]c3ccc(C(=O)NCCCn4ccnc4)cc23)cc1`: the GI50 in the test on EKVX NSCLC, in the test on RXF 393 renal, in the test on M14 melanoma, in the test with HCC-2998 colon, in the test on SK-MEL-2 melanoma and in the test on NCI-H23 lung was > 25 µM each time. Besides, the GI50 in the test on SK-MEL-5 melanoma, in the test with OVCAR-5 ovarian, in the test on SK-OV-3 ovarian and with T-47D breast was > 25 µM in each case. Besides, the TGI in the test with EKVX NSCLC, with RXF 393 renal, in the test with M14 melanoma, with HCC-2998 colon, in the test with SK-MEL-2 melanoma and in the test with NCI-H23 lung was > 25 µM each time. The TGI with SK-MEL-5 melanoma, in the test on OVCAR-5 ovarian, in the test with SK-OV-3 ovarian and in the test on T-47D breast was > 25 µM each time.

In the case of `COc1cccc(C(=O)NNc2nc(Cl)nc(N3CCN(C(c4ccccc4)c4ccccc4)CC3)n2)c1`, the GI50 in the test on EKVX NSCLC is 5.76 µM; with RXF 393 renal, 2.7 µM; in the test with M14 melanoma it was 1.7 µM; with HCC-2998 colon it was 1.77 µM; in the test on SK-MEL-2 melanoma, 2.14 µM; in the test with NCI-H23 lung, 2.7 µM. In addition, the GI50 in the test with SK-MEL-5 melanoma was 15.9 µM; in the test with OVCAR-5 ovarian it was 16.3 µM; in the test with SK-OV-3 ovarian, 13.2 µM; with T-47D breast, > 100 µM. The TGI came out at 20 µM with EKVX NSCLC; 8.28 µM in the test with RXF 393 renal; 3.53 µM with M14 melanoma; 3.43 µM with HCC-2998 colon; 5.31 µM with SK-MEL-2 melanoma; 7.5 µM in the test on NCI-H23 lung. The TGI in the test on SK-MEL-5 melanoma was 29.7 µM; in the test on OVCAR-5 ovarian, 40 µM; in the test with SK-OV-3 ovarian it was 26 µM; in the test with T-47D breast, > 100 µM.

Consider `CC(C)c1cnc(-c2cc(Cl)ccc2F)cc1Nc1ccncc1C(=O)NC(CO)CO`, for which the GI50 with EKVX NSCLC is 11.2 µM; with RXF 393 renal, 10.3 µM; in the test with M14 melanoma, 17.8 µM; in the test on HCC-2998 colon, 17.6 µM; in the test on SK-MEL-2 melanoma, 18 µM; in the test with NCI-H23 lung, 13.9 µM. Also, the GI50 in the test with SK-MEL-5 melanoma is 14.2 µM; in the test on OVCAR-5 ovarian it was 16.2 µM; in the test on SK-OV-3 ovarian, 19.8 µM; with T-47D breast, 4.5 µM. For the same compound, the TGI turned out to be 24.6 µM in the test with EKVX NSCLC; 27 µM in the test with RXF 393 renal; 39 µM in the test on M14 melanoma; 33.2 µM in the test with HCC-2998 colon; 38.5 µM with SK-MEL-2 melanoma; 33.5 µM with NCI-H23 lung. For the same compound, the TGI was found to be 27.5 µM with SK-MEL-5 melanoma, 39.6 µM in the test with OVCAR-5 ovarian, 55.5 µM in the test on SK-OV-3 ovarian and 34.8 µM with T-47D breast.
